Results reported in ChEMBL document CHEMBL5331092, “PROTACS: A technology with a gold rush-like atmosphere” (Eur J Med Chem, 2023).
One block for each molecule: values may come before it.

How the values were obtained:
[1] = molecular target: von Hippel-Lindau disease tumor suppressor/Androgen receptor (Homo sapiens) (UniProt P10275+P40337); experiment: PROTAC activity at VHL/AR in human VCaP cells assessed as maximum degradation at 5 nM relative to control; format: cell-based
[2] = molecular target: T1, Protein cereblon/Estrogen receptor (Homo sapiens, UniProt P03372+Q96SW2); experiment: Protac activity at CRBN E3 ligase/Estrogen receptor in human MCF7 cells assessed maximum degradation at 1.5 uM measured upto 24 hrs by ELISA method relative to control; format: cell-based
Target sequence in this assay (P03372 whole entry, looked up): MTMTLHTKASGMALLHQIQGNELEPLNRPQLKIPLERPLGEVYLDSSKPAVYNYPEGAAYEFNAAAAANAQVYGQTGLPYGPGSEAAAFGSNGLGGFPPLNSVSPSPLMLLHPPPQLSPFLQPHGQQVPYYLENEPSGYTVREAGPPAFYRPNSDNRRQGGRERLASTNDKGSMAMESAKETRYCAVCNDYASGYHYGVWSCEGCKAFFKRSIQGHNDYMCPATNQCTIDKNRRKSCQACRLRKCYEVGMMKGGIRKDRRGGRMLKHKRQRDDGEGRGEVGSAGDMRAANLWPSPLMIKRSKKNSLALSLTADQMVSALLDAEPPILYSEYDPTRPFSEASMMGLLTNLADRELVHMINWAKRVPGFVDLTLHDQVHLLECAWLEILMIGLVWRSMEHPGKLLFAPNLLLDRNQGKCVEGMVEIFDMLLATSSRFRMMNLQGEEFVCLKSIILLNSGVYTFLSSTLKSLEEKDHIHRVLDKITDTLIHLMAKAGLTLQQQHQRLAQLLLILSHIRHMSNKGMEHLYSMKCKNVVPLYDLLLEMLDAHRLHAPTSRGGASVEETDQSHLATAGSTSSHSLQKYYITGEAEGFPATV
Target sequence in this assay (Q96SW2 whole entry, looked up): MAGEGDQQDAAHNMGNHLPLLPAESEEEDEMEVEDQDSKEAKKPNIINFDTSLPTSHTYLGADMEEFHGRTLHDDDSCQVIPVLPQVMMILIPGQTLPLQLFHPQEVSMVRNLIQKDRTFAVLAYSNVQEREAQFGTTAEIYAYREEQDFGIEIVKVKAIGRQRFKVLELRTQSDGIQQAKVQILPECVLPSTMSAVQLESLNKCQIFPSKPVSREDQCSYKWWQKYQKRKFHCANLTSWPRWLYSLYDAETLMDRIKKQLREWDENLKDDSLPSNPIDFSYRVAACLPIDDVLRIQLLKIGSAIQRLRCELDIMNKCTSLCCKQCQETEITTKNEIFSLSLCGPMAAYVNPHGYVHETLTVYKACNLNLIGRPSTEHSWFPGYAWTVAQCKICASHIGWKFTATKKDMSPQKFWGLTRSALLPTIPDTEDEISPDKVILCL

[3] = molecular target: T1, Protein cereblon/Estrogen receptor; experiment: Protac activity at CRBN E3 ligase/Estrogen receptor in human MCF7 cells assessed as induction of estrogen receptor degradation measured upto 24 hrs by ELISA method; format: cell-based
Target sequence in this assay (P03372 whole entry): as the sequence (P03372 whole entry, looked up) above
Target sequence in this assay (Q96SW2 whole entry): as the sequence (Q96SW2 whole entry, looked up) above

[4] = molecular target: Protein cereblon/Focal adhesion kinase 1 (Homo sapiens) (UniProt Q05397+Q96SW2); experiment: Protac activity at CRBN E3 ligase/FAK (unknown origin) assessed as […] FAK degradation at 10 nM relative to control; format: protein assay; set-up: scale not given: the % may be the effect or the level left
Protein cereblon/Focal adhesion kinase 1 (Homo sapiens), sequence (Q05397 2-1052 limits assumed): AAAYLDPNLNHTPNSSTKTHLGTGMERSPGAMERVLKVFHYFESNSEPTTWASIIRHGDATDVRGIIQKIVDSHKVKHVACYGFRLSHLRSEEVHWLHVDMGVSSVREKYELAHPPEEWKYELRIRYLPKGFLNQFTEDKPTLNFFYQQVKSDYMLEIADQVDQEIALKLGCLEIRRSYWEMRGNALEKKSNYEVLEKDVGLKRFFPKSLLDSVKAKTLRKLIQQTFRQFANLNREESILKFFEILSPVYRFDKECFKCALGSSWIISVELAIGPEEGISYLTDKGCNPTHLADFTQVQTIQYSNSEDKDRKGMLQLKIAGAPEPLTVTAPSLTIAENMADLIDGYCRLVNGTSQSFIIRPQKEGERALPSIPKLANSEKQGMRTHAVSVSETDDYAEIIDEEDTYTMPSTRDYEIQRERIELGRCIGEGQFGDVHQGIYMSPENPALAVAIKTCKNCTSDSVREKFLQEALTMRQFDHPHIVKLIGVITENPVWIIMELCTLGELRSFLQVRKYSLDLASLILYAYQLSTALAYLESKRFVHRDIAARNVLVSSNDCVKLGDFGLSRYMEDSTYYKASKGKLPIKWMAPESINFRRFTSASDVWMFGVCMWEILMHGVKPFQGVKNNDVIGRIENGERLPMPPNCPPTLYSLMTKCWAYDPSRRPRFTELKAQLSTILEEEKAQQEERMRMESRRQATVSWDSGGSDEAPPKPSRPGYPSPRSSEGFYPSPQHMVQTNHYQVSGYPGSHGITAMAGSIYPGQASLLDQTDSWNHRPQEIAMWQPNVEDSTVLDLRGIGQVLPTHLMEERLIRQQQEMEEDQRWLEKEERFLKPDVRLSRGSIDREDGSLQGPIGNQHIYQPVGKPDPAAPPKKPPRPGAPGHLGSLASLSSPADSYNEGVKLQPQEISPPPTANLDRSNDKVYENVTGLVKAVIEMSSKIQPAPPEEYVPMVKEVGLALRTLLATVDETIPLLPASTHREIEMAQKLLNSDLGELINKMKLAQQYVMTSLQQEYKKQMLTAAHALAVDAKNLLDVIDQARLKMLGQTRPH
Protein cereblon/Focal adhesion kinase 1 (Homo sapiens), sequence (Q96SW2 whole entry partner): as the sequence (Q96SW2 whole entry, looked up) above

[5] = molecular target: T1, Protein cereblon/Estrogen receptor; experiment: Protac activity at CRBN E3 ligase/Estrogen receptor in human T47D cells assessed maximum degradation at 1.5 uM measured upto 24 hrs by ELISA method relative to control; format: cell-based
Target sequence in this assay (P03372 whole entry, looked up): as the sequence (P03372 whole entry, looked up) above
Target sequence in this assay (Q96SW2 whole entry, looked up): as the sequence (Q96SW2 whole entry, looked up) above

[6] = molecular target: T1, Protein cereblon/Estrogen receptor; experiment: Protac activity at CRBN E3 ligase/Estrogen receptor in human T47D cells assessed as induction of estrogen receptor degradation measured upto 24 hrs by ELISA method; format: cell-based
Target sequence in this assay (P03372 whole entry): as the sequence (P03372 whole entry, looked up) above
Target sequence in this assay (Q96SW2 whole entry): as the sequence (Q96SW2 whole entry, looked up) above

[7] = molecular target: Protein cereblon/Tyrosine-protein kinase BTK (Homo sapiens, UniProt Q06187+Q96SW2); experiment: PROTAC activity at CRBN/BTK in human TMD8 cells assessed as induction of BTK degradation incubated for 24 hrs by immunoblotting analysis; format: cell-based
Protein cereblon/Tyrosine-protein kinase BTK, sequence (Q06187 whole entry): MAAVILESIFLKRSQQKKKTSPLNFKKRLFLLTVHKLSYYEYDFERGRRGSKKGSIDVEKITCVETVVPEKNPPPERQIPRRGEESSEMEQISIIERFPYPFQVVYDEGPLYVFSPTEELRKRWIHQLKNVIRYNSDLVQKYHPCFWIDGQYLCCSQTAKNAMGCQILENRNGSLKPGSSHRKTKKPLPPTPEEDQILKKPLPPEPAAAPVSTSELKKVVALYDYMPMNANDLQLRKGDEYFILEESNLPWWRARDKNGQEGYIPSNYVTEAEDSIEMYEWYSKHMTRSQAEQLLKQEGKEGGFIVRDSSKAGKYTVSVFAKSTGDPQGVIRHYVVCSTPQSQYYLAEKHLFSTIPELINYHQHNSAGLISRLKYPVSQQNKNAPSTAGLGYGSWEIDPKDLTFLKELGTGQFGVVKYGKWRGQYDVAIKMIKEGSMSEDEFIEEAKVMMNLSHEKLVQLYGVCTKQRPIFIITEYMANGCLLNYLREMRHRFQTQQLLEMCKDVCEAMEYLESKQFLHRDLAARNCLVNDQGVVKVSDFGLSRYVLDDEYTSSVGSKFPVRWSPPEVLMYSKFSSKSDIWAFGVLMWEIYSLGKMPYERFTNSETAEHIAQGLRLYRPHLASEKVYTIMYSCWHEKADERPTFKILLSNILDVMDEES
Protein cereblon/Tyrosine-protein kinase BTK, sequence (Q96SW2 whole entry): as the sequence (Q96SW2 whole entry, looked up) above

von Hippel-Lindau disease tumor suppressor/Androgen receptor (Homo sapiens), sequence (P10275 whole entry, looked up): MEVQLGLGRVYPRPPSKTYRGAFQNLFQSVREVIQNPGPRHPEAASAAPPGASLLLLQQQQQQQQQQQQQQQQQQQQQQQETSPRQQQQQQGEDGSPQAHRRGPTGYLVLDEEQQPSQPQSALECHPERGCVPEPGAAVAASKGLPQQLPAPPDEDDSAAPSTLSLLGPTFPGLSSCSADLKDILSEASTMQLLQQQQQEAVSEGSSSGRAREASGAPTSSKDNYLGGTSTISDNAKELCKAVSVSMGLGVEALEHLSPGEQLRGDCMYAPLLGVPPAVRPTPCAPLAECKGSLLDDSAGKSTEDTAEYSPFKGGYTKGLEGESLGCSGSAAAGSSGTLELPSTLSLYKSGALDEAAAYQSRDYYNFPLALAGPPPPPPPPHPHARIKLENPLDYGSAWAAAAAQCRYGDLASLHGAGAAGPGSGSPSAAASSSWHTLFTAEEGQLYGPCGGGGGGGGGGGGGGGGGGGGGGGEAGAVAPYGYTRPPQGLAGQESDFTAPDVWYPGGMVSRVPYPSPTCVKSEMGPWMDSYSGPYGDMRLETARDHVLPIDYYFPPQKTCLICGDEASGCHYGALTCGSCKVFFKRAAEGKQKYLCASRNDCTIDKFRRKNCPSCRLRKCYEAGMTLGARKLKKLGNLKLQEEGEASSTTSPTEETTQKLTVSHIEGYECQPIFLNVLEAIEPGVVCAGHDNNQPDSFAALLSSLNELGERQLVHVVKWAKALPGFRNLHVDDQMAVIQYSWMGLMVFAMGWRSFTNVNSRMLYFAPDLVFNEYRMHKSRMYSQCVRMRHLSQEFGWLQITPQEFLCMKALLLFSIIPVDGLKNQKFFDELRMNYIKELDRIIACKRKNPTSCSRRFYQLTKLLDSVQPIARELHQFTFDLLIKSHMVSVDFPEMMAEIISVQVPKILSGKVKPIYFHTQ
von Hippel-Lindau disease tumor suppressor/Androgen receptor (Homo sapiens), sequence (P40337 whole entry, looked up): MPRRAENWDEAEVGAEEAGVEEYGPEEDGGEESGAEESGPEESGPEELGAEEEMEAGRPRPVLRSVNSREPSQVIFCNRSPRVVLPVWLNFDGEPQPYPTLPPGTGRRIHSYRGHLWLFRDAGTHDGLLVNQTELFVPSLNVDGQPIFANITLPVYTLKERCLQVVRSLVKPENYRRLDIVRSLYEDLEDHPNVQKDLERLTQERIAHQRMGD

Structure (SMILES): Cc1ncsc1-c1ccc(CNC(=O)C2C[C@@H](O)CN2C(=O)C(NC(=O)COCCCCOc2ccc(-c3ccc(N4C(=S)N(c5ccc(C#N)c(C(F)(F)F)c5)C(=O)C4(C)C)cc3)cc2)C(C)(C)C)cc1 (some centres undefined)
- Emax [1]: 95%

Structure (SMILES): Cc1ncsc1-c1ccc([C@H](C)NC(=O)C2C[C@@H](O)CN2C(=O)[C@@H](NC(=O)CCCCOc2ccc(CCNC(=O)c3ccc(C(=O)c4c(-c5ccc(O)cc5)sc5cc(O)ccc45)cc3)cc2)C(C)(C)C)cc1 (some centres undefined)
- Emax [2]: 98%
- EC50 [3]: 1.1 nM

Structure (SMILES): Cc1ncsc1-c1ccc([C@H](C)NC(=O)C2C[C@@H](O)CN2C(=O)[C@@H](NC(=O)CCCCOc2ccc(/C=N/NC(=O)c3ccc(C(=O)c4c(-c5ccc(O)cc5)sc5cc(O)ccc45)cc3)cc2)C(C)(C)C)cc1 (some centres undefined)
- Emax [2]: > 95%
- Emax [5]: > 95%
- EC50 [3]: 10 nM
- EC50 [6]: 10 nM

Now from value to molecule:

- Activity [4]: 90%
Structure (SMILES): CN(c1ncccc1CNc1nc(Nc2ccc(NC(=O)c3cn(CCOCCOCCNc4cccc5c4C(=O)N(C4CCC(=O)NC4=O)C5=O)nn3)cc2)ncc1C(F)(F)F)S(C)(=O)=O (centres undefined)

- EC50 [7]: 4 nM
Structure (SMILES): Cc1cccc(C)c1Nc1nn(C)c2nc(Nc3ccc4c(c3)CN(CC3CCN(c5ccc6c(c5)C(=O)N(C5CCC(=O)NC5=O)C6=O)CC3)CC4)ncc12 (centres undefined)
